Reference: patent US11999728B2, “Estrogen receptor modulators” (Recurium IP Holdings, LLC, priority 2020, dated 2024)

system: MCF7; experiment: Breast Cancer Cell Proliferation Assay (MCF-7), Cell Titer-Glo; type: cell-based; conditions: Homo sapiens, MCF7, 120 h, MCF7 cells, 5 days of compound exposure
Experimental: Breast Cancer Cell Proliferation Assay (MCF-7)
MCF7 was expanded and maintained in the medium (Phenol red free DMEM/F12 (Hyclone SH30272.01) NEAA (Gibco11140-050) Na-pyruvate (Gibco 11360-070) and Re-stripped Charcoal stripped FBS (Gemini 100-119)). The cells were adjusted to a concentration of 3,000 cells per mL in the above media, and the cells were incubated (37° C., 5% CO2). The following day a 10-point, serial dilution of compounds was added to the cells at a final concentration ranging from 10-0.000005 μM for test compounds (17β-estradiol was used as a control). Additional cells were plated in 30 wells to serve as the day 1 (pretreatment) comparison. After 5 days of compound exposure, Cell Titer-Glo reagent was added to the cells and the relative luminescence units (RLUs) of each well was determined. Cell Titer-Glo was also added to 32 μL of medium without cells to obtain a background value. The plates were allowed to incubate at room temperature for 10 minutes to stabilize luminescent signal and the luminescence signal was recorded with EnSpire. The relative increase in cell number of each sample is determined as follows: (RLU sample-RLU background/RLU estrogen only treated cells-RLU background)×100=% inhibition.

Structure (SMILES)	IC50 [nM]
CCCN1CC(Nc2ccc([C@@H]3c4[nH]c5ccccc5c4C[C@@H](C)N3C34CC(C3)C4)cn2)C1 [Compound 30, 5-((1R,3R)-2-(bicyclo[1.1.1]pentan-1-yl)-3-methyl-2,3,4,9-tetrahydro-1H-pyrido[3,4-b]indol-1-yl)-N-(1-propylazetidin-3-yl)pyridin-2-amine]	≥ 250
C[C@@H]1Cc2c([nH]c3ccccc23)[C@@H](c2c(F)cc(OCCN3CCCC3)cc2F)N1C12CC(C1)C2 [Compound 26, (1R,3R)-2-(bicyclo[1.1.1]pentan-1-yl)-1-(2,6-difluoro-4-(2-(pyrrolidin-1-yl)ethoxy)phenyl)-3-methyl-2,3,4,9-tetrahydro-1H-pyrido[3,4-b]indole]	≥ 250
C[C@@H]1Cc2c([nH]c3ccccc23)[C@@H](c2ccc(OC3CN(CCO)C3)cc2)N1C12CC(C1)C2 [Compound 46, 2-(3-(4-((1R,3R)-2-(bicyclo[1.1.1]pentan-1-yl)-3-methyl-2,3,4,9-tetrahydro-1H-pyrido[3,4-b]indol-1-yl)phenoxy)azetidin-1-yl)ethan-1-ol]	≥ 250
CCCN1CC(Oc2ccc([C@H]3c4[nH]c5ccccc5c4C[C@H](C)N3C34CC(CO)(C3)C4)cc2)C1 (single isomer, unassigned) [Compound 53]	25 to 250
C[C@@H]1Cc2c([nH]c3ccccc23)[C@@H](c2ccc(O[C@@H]3CCN(CCCF)C3)cn2)N1C12CC(C1)C2 (single isomer, unassigned) [Compound 11]	≥ 250
C[C@@H]1Cc2c([nH]c3ccccc23)[C@@H](c2ncc(NC3CN(CCCF)C3)cn2)N1C12CC(C1)C2 [Compound 60, 2-((1S,3R)-2-(bicyclo[1.1.1]pentan-1-yl)-3-methyl-2,3,4,9-tetrahydro-1H-pyrido[3,4-b]indol-1-yl)-N-(1-(3-fluoropropyl)azetidin-3-yl)pyrimidin-5-amine]	≥ 250
C[C@H]1Cc2c([nH]c3ccccc23)[C@H](c2c(F)cc(NC3CN(CCCF)C3)cc2F)N1C12CC(CO)(C1)C2 (single isomer, unassigned) [Compound 17]	≥ 250
C[C@@H]1Cc2c([nH]c3ccccc23)[C@@H](c2ccc(O[C@H]3CCN(CCCF)C3)cc2)N1C12CC(C1)C2 (single isomer, unassigned) [Compound 8]	≤ 25
C[C@@H]1Cc2c([nH]c3ccccc23)[C@@H](c2ccc(N[C@H]3CN(CCCF)C[C@@H]3O)cc2)N1C12CC(C1)C2 (single isomer, unassigned) [Compound 79]	25 to 250
C[C@@H]1Cc2c([nH]c3ccccc23)[C@@H](c2ccc(OC3CN(CCCF)C3)cc2)N1C12CC(CO)(C1)C2 (single isomer, unassigned) [Compound 50]	≤ 25
C[C@@H]1Cc2c([nH]c3ccccc23)[C@@H](c2ccc(N3CC(NCCCF)C3)cn2)N1C12CC(C1)C2 [Compound 49, 1-(6-((1S,3R)-2-(bicyclo[1.1.1]pentan-1-yl)-3-methyl-2,3,4,9-tetrahydro-1H-pyrido[3,4-b]indol-1-yl)pyridin-3-yl)-N-(3-fluoropropyl)azetidin-3-amine]	≥ 250
C[C@]12CC[C@@H]3c4ccc(O)cc4C[C@@H](CCCCCCCCC[S+]([O-])CCCC(F)(F)C(F)(F)F)[C@H]3[C@@H]1CC[C@@H]2O (stereo partly drawn) [fulvestrant, reference compound]	≤ 25
C[C@H]1Cc2c([nH]c3ccccc23)[C@H](c2c(F)cc(NC3CN(CCCF)C3)cc2F)N1C12CC(C(N)=O)(C1)C2 (single isomer, unassigned) [Compound 77]	≥ 250
C[C@H]1Cc2c([nH]c3ccccc23)[C@H](c2c(F)cc(O[C@H]3CCN(CCCF)C3)cc2F)N1C12CC(C#N)(C1)C2 (single isomer, unassigned) [Compound 90]	≥ 250
C[C@@H]1Cc2c([nH]c3ccccc23)[C@@H](c2ccc(N[C@@H]3CN(CCCF)C[C@H]3O)cc2)N1C12CC(C1)C2 (single isomer, unassigned) [Compound 80]	≤ 25
C[C@@H]1Cc2c([nH]c3ccccc23)[C@@H](c2ccc(N[C@H]3CCN(CCCF)C3)cn2)N1C12CC(C1)C2 [Compound 55, 6-((1S,3R)-2-(bicyclo[1.1.1]pentan-1-yl)-3-methyl-2,3,4,9-tetrahydro-1H-pyrido[3,4-b]indol-1-yl)-N—((S)-1-(3-fluoropropyl)pyrrolidin-3-yl)pyridin-3-amine]	≥ 250
C[C@@H]1Cc2c([nH]c3ccccc23)[C@@H](c2c(F)cc(O[C@H]3CCN(CCCF)C3)cc2F)N1C12CC(C(N)=O)(C1)C2 (single isomer, unassigned) [Compound 35]	≤ 25
C[C@@H]1Cc2c([nH]c3ccccc23)[C@@H](c2ccc(OC3CN(CCCF)C3)cc2)N1C12CC(C1)C2 [Compound 38, (1R,3R)-2-(bicyclo[1.1.1]pentan-1-yl)-1-(4-((1-(3-fluoropropyl)azetidin-3-yl)oxy)phenyl)-3-methyl-2,3,4,9-tetrahydro-1H-pyrido[3,4-b]indole]	≤ 25
CCCCN1C[C@@H](F)[C@H](Nc2ccc([C@@H]3c4[nH]c5ccccc5c4C[C@@H](C)N3C34CC(C3)C4)cc2)C1 [Compound 84, (3R,4R)—N-(4-((1R,3R)-2-(bicyclo[1.1.1]pentan-1-yl)-3-methyl-2,3,4,9-tetrahydro-1H-pyrido[3,4-b]indol-1-yl)phenyl)-1-butyl-4-fluoropyrrolidin-3-amine]	≤ 25
C[C@@H]1Cc2c([nH]c3ccccc23)[C@@H](c2cnc(NC3CN(CCCF)C3)c(F)c2)N1C12CC(C1)C2 [Compound 41, 5-((1R,3R)-2-(bicyclo[1.1.1]pentan-1-yl)-3-methyl-2,3,4,9-tetrahydro-1H-pyrido[3,4-b]indol-1-yl)-3-fluoro-N-(1-(3-fluoropropyl)azetidin-3-yl)pyridin-2-amine]	≥ 250
C[C@@H]1Cc2c([nH]c3ccccc23)[C@@H](c2cnc(N[C@H]3CCN(CCCF)C3)cn2)N1C12CC(C1)C2 [Compound 44, 5-((1S,3R)-2-(bicyclo[1.1.1]pentan-1-yl)-3-methyl-2,3,4,9-tetrahydro-1H-pyrido[3,4-b]indol-1-yl)-N—((S)-1-(3-fluoropropyl)pyrrolidin-3-yl)pyrazin-2-amine]	≥ 250
C[C@@H]1Cc2c([nH]c3ccccc23)[C@@H](c2c(F)cc(NCCN3CCCC3)cc2F)N1C12CC(C1)C2 [Compound 22, 4-((1R,3R)-2-(bicyclo[1.1.1]pentan-1-yl)-3-methyl-2,3,4,9-tetrahydro-1H-pyrido[3,4-b]indol-1-yl)-3,5-difluoro-N-(2-(pyrrolidin-1-yl)ethyl)aniline]	25 to 250
C[C@H]1Cc2c([nH]c3ccccc23)[C@H](c2c(F)cc(O[C@@H]3CCN(CCCF)C3)cc2F)N1C12CC(C(N)=O)(C1)C2 (single isomer, unassigned) [Compound 33]	≥ 250
COc1cc(NC2CN(CCCF)C2)cc(F)c1[C@@H]1c2[nH]c3ccccc3c2C[C@@H](C)N1C12CC(C1)C2 [Compound 92, N-(4-((1R,3R)-2-(bicyclo[1.1.1]pentan-1-yl)-3-methyl-2,3,4,9-tetrahydro-1H-pyrido[3,4-b]indol-1-yl)-3-fluoro-5-methoxyphenyl)-1-(3-fluoropropyl)azetidin-3-amine]	≤ 25
C[C@@H]1Cc2c([nH]c3ccccc23)[C@@H](c2ncc(OC3CN(CCCF)C3)cc2F)N1C12CC(C1)C2 [Compound 14, (1S,3R)-2-(bicyclo[1.1.1]pentan-1-yl)-1-(3-fluoro-5-((1-(3-fluoropropyl)azetidin-3-yl)oxy)pyridin-2-yl)-3-methyl-2,3,4,9-tetrahydro-1H-pyrido[3,4-b]indole]	≤ 25
C[C@@H]1Cc2c([nH]c3ccccc23)[C@@H](c2ncc(NC3CN(CCCF)C3)cc2F)N1C12CC(C1)C2 [Compound 13, 6-((1S,3R)-2-(bicyclo[1.1.1]pentan-1-yl)-3-methyl-2,3,4,9-tetrahydro-1H-pyrido[3,4-b]indol-1-yl)-5-fluoro-N-(1-(3-fluoropropyl)azetidin-3-yl)pyridin-3-amine]	≤ 25
C#CCN1CC(Nc2ccc([C@@H]3c4[nH]c5ccccc5c4C[C@@H](C)N3C34CC(C3)C4)cc2)C1 [Compound 65, N-(4-((1R,3R)-2-(bicyclo[1.1.1]pentan-1-yl)-3-methyl-2,3,4,9-tetrahydro-1H-pyrido[3,4-b]indol-1-yl)phenyl)-1-(prop-2-yn-1-yl)azetidin-3-amine]	≤ 25
C[C@@H]1Cc2c([nH]c3ccccc23)[C@@H](c2ccc(N[C@@H]3CN(CCCF)C[C@@H]3O)cc2)N1C12CC(C1)C2 [Compound 78, (3S,4R)-4-((4-((1R,3R)-2-(bicyclo[1.1.1]pentan-1-yl)-3-methyl-2,3,4,9-tetrahydro-1H-pyrido[3,4-b]indol-1-yl)phenyl)amino)-1-(3-fluoropropyl)pyrrolidin-3-ol]	≤ 25
C[C@@H]1Cc2c([nH]c3ccccc23)[C@@H](c2c(F)cc(O[C@H]3CCN(CCCF)C3)cc2F)N1C12CC(C#N)(C1)C2 (single isomer, unassigned) [Compound 36]	≥ 250
COc1cc(NC2CN(CCCF)C2)cnc1[C@@H]1c2[nH]c3ccccc3c2C[C@@H](C)N1C12CC(C1)C2 [Compound 94, 6-((1S,3R)-2-(bicyclo[1.1.1]pentan-1-yl)-3-methyl-2,3,4,9-tetrahydro-1H-pyrido[3,4-b]indol-1-yl)-N-(1-(3-fluoropropyl)azetidin-3-yl)-5-methoxypyridin-3-amine]	≥ 250
